# From patent US20240358693A1, “METHODS OF TREATING PAIN” (Aisa Pharma, Inc., priority 2023, published 2024)
# Test system: participants with SSc-RP
# Test: Average severity of weekly RP attacks (VAS 0-10 cm scale)
# Format: in vivo, human
# Text: The absolute change in average severity of weekly RP attacks (VAS 0-10 cm scale) from baseline to the end of each Dosing Period was and will be a secondary outcome variable. The sponsor-developed participant-informed diary will be used to record data. Average severity of weekly RP attacks is defined as the total severity scores of RP attacks divided by total number of RP attacks within the last 7 days of each dosing period. Total severity scores of RP attacks during the last 7 days of screening period divided by the total number of RP attacks will be used as baseline for the analysis of all periods. The variable will be calculated similar to frequency data as before.
# [1] = Cilnidipine 10 mg, n=1, Excluding Outliers, ITT Population - Part A
# [2] = Cilnidipine 10 mg, n=1, ITT Population - Part A
# [3] = Cilnidipine 10 mg, n=1, by Baseline RCS, first subgroup, ITT Population - Part A
# [4] = Cilnidipine 10 mg, Excluding Outliers, ITT Population - Part A
# [5] = Cilnidipine 10 mg, Excluding Outliers, by Baseline RCS, first subgroup, ITT Population - Part A
# [6] = Cilnidipine 10 mg, ITT Population - Part A
# [7] = Cilnidipine 10 mg, first Baseline RCS subgroup block (not named), ITT Part A
# [8] = Cilnidipine 10 mg, first Baseline RCS subgroup block (not named), ITT Part A, score 0-10
# [9] = Cilnidipine 20 mg, n=2, Excluding Outliers, ITT Population - Part A
# [10] = Cilnidipine 20 mg, n=2, ITT Population - Part A
# [11] = Cilnidipine 20 mg, n=2, by Baseline RCS, first subgroup, ITT Population - Part A
# [12] = Cilnidipine 20 mg, Excluding Outliers, ITT Population - Part A
# [13] = Cilnidipine 20 mg, Excluding Outliers, by Baseline RCS, first subgroup, ITT Population - Part A
compound,measurement,setting,value
"COCCOC(=O)C1=C(C)NC(C)=C(C(=O)OC/C=C/c2ccccc2)C1c1cccc([N+](=O)[O-])c1 (stereo not shown) [Cilnidipine, cilnidipine]","Average Severity (0-10) of Weekly Symptomatic RP Attacks, Mean",[1],3.77
same,"Average Severity (0-10) of Weekly Symptomatic RP Attacks, Median",[1],3.77
same,"Average Severity of Weekly Symptomatic RP Attacks, Change from Baseline, Mean",[1],0.28
same,"Average Severity of Weekly Symptomatic RP Attacks, Change from Baseline, Median",[1],0.28
same,"Average Severity of Weekly Symptomatic RP Attacks, Percent Change from Baseline, Mean",[1],8.05%
same,"Average Severity of Weekly Symptomatic RP Attacks, Percent Change from Baseline, Median",[1],8.05%
same,"Average Severity (0-10) of Weekly Symptomatic RP Attacks, Mean",[2],3.77
same,"Average Severity (0-10) of Weekly Symptomatic RP Attacks, Median",[2],3.77
same,"Average Severity of Weekly Symptomatic RP Attacks, Change from Baseline, Mean",[2],0.28
same,"Average Severity of Weekly Symptomatic RP Attacks, Change from Baseline, Median",[2],0.28
same,"Average Severity of Weekly Symptomatic RP Attacks, Percent Change from Baseline, Mean",[2],8.05%
same,"Average Severity of Weekly Symptomatic RP Attacks, Percent Change from Baseline, Median",[2],8.05%
same,"Average Severity (0-10) of Weekly Symptomatic RP Attacks, Mean",[3],3.77
same,"Average Severity (0-10) of Weekly Symptomatic RP Attacks, Median",[3],3.77
same,"Average Severity of Weekly Symptomatic RP Attacks, Change from Baseline, Mean",[3],0.28
same,"Average Severity of Weekly Symptomatic RP Attacks, Change from Baseline, Median",[3],0.28
same,"Average Severity of Weekly Symptomatic RP Attacks, Percent Change from Baseline, Mean",[3],8.05%
same,"Average Severity of Weekly Symptomatic RP Attacks, Percent Change from Baseline, Median",[3],8.05%
same,"Average Severity of Weekly RP Attacks (All Attacks), Change from Baseline, Mean",[4],0.02
same,"Average Severity of Weekly RP Attacks (All Attacks), Change from Baseline, Median",[4],0.02
same,"Average Severity of Weekly RP Attacks (All Attacks), Mean",[4],3.05
same,"Average Severity of Weekly RP Attacks (All Attacks), Median",[4],3.05
same,"Average Severity of Weekly RP Attacks (All Attacks), Percent Change from Baseline, Mean",[4],0.55%
same,"Average Severity of Weekly RP Attacks (All Attacks), Percent Change from Baseline, Median",[4],0.55%
same,Average Severity of Weekly Symptomatic RP Attacks (Mean),[5],3.77
same,Average Severity of Weekly Symptomatic RP Attacks (Median),[5],3.77
same,"Average Severity of Weekly Symptomatic RP Attacks, Change from Baseline, Mean",[5],0.28
same,"Average Severity of Weekly Symptomatic RP Attacks, Change from Baseline, Median",[5],0.28
same,"Average Severity of Weekly Symptomatic RP Attacks, Percent Change from Baseline, Mean",[5],8.05%
same,"Average Severity of Weekly Symptomatic RP Attacks, Percent Change from Baseline, Median",[5],8.05%
same,"Average Severity of Weekly RP Attacks (All Attacks), Change from Baseline, Mean",[6],0.02
same,"Average Severity of Weekly RP Attacks (All Attacks), Change from Baseline, Median",[6],0.02
same,"Average Severity of Weekly RP Attacks (All Attacks), Mean",[6],3.05
same,"Average Severity of Weekly RP Attacks (All Attacks), Median",[6],3.05
same,"Average Severity of Weekly RP Attacks (All Attacks), Percent Change from Baseline, Mean",[6],0.55%
same,"Average Severity of Weekly RP Attacks (All Attacks), Percent Change from Baseline, Median",[6],0.55%
same,"Average Severity of Weekly RP Attacks (All Attacks), Percent Change from Baseline, Mean",[7],0.55%
same,"Average Severity of Weekly RP Attacks (All Attacks), Percent Change from Baseline, Median",[7],0.55%
same,"Average Severity of Weekly RP Attacks (All Attacks), Change from Baseline, Mean",[8],0.02
same,"Average Severity of Weekly RP Attacks (All Attacks), Change from Baseline, Median",[8],0.02
same,"Average Severity of Weekly RP Attacks (All Attacks), Mean",[8],3.05
same,"Average Severity of Weekly RP Attacks (All Attacks), Median",[8],3.05
same,"Average Severity (0-10) of Weekly Symptomatic RP Attacks, Mean",[9],2.30
same,"Average Severity (0-10) of Weekly Symptomatic RP Attacks, Median",[9],2.30
same,"Average Severity of Weekly Symptomatic RP Attacks, Change from Baseline, Mean",[9],−1.44
same,"Average Severity of Weekly Symptomatic RP Attacks, Change from Baseline, Median",[9],−1.44
same,"Average Severity of Weekly Symptomatic RP Attacks, Percent Change from Baseline, Mean",[9],−32.85%
same,"Average Severity of Weekly Symptomatic RP Attacks, Percent Change from Baseline, Median",[9],−32.85%
same,"Average Severity (0-10) of Weekly Symptomatic RP Attacks, Mean",[10],2.30
same,"Average Severity (0-10) of Weekly Symptomatic RP Attacks, Median",[10],2.30
same,"Average Severity of Weekly Symptomatic RP Attacks, Change from Baseline, Mean",[10],−1.44
same,"Average Severity of Weekly Symptomatic RP Attacks, Change from Baseline, Median",[10],−1.44
same,"Average Severity of Weekly Symptomatic RP Attacks, Percent Change from Baseline, Mean",[10],−32.85%
same,"Average Severity of Weekly Symptomatic RP Attacks, Percent Change from Baseline, Median",[10],−32.85%
same,"Average Severity (0-10) of Weekly Symptomatic RP Attacks, Mean",[11],2.30
same,"Average Severity (0-10) of Weekly Symptomatic RP Attacks, Median",[11],2.30
same,"Average Severity of Weekly Symptomatic RP Attacks, Change from Baseline, Mean",[11],−1.44
same,"Average Severity of Weekly Symptomatic RP Attacks, Change from Baseline, Median",[11],−1.44
same,"Average Severity of Weekly Symptomatic RP Attacks, Percent Change from Baseline, Mean",[11],−32.85%
same,"Average Severity of Weekly Symptomatic RP Attacks, Percent Change from Baseline, Median",[11],−32.85%
same,"Average Severity of Weekly RP Attacks (All Attacks), Change from Baseline, Mean",[12],−1.07
same,"Average Severity of Weekly RP Attacks (All Attacks), Change from Baseline, Median",[12],−1.07
same,"Average Severity of Weekly RP Attacks (All Attacks), Mean",[12],2.30
same,"Average Severity of Weekly RP Attacks (All Attacks), Median",[12],2.30
same,"Average Severity of Weekly RP Attacks (All Attacks), Percent Change from Baseline, Mean",[12],−27.26%
same,"Average Severity of Weekly RP Attacks (All Attacks), Percent Change from Baseline, Median",[12],−27.26%
same,Average Severity of Weekly Symptomatic RP Attacks (Mean),[13],2.30
same,Average Severity of Weekly Symptomatic RP Attacks (Median),[13],2.30
same,"Average Severity of Weekly Symptomatic RP Attacks, Change from Baseline, Mean",[13],−1.44
same,"Average Severity of Weekly Symptomatic RP Attacks, Change from Baseline, Median",[13],−1.44
same,"Average Severity of Weekly Symptomatic RP Attacks, Percent Change from Baseline, Mean",[13],−32.85%
same,"Average Severity of Weekly Symptomatic RP Attacks, Percent Change from Baseline, Median",[13],−32.85%
same,"Average Severity of Weekly RP Attacks (All Attacks), Change from Baseline, Mean","Cilnidipine 20 mg, ITT Population - Part A",−1.07
